“And” between values parts separate entries of the source, which are not always exact repeats. Identical values can stand only once.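 Where inhibition never reached the appropriate level, the endpoint shown equals the highest concentration tested. Otherwise, values were interpolated linearly from a five-concentration, 48-hour dose response in 96-well plates. GI50 marks 50% less growth. At the TGI there is no net growth.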 Some results are limits rather than exact numbers.

The results in this text go back to PubChem BioAssay (NCI).

Some test systems named below: U251 CNS; HCC-2998 colon; OVCAR-4 ovarian; SW-620 colon; DLD-1 colon; CCRF-CEM leukemia; UO-31 renal; KM20L2 colon; OVCAR-5 ovarian; A498 renal; DMS 273 small cell lung; M19-MEL melanoma.
Holding throughout (experiment): NCI tumour cell line growth inhibition, 48 h

Turning to `CC(=O)OC1CC2C(C)(C)OC(=O)CC(OC(C)=O)[C@]2(C)C2CCC3(C)C(=CCC3[C@H]3COC(=O)C3)[C@]12C` (some centres not stated), the TGI is above 100 µM in the assay on U251 CNS; above 100 µM with HCC-2998 colon; above 100 µM with OVCAR-4 ovarian; above 100 µM in the assay on SW-620 colon; above 100 µM in the assay with DLD-1 colon; 65.8 µM in the assay with CCRF-CEM leukemia. Moreover, the TGI in the assay on UO-31 renal, with KM20L2 colon, in the assay with OVCAR-5 ovarian, with A498 renal, in the assay on DMS 273 small cell lung and in the assay with M19-MEL melanoma was above 100 µM in each case.
`O=C(CSc1nnc(Cc2ccccc2)o1)Nc1ccc([N+](=O)[O-])cc1`: the TGI in the assay on U251 CNS, in the assay on HCC-2998 colon, in the assay on OVCAR-4 ovarian, with DLD-1 colon, in the assay on CCRF-CEM leukemia and with UO-31 renal was above 100 µM in each case. Besides, the TGI in the assay with KM20L2 colon, in the assay on OVCAR-5 ovarian, in the assay on A498 renal, with DMS 273 small cell lung and in the assay with M19-MEL melanoma was above 100 µM each time.
Consider `O=C(NC(Cc1ccc(I)cc1)C(=O)O)c1ccc(Br)cc1` (configuration not stated), for which the TGI with U251 CNS, with HCC-2998 colon, with OVCAR-4 ovarian, in the assay on SW-620 colon, with DLD-1 colon and in the assay with CCRF-CEM leukemia was above 100 µM in each case. Further, the TGI with UO-31 renal, in the assay with KM20L2 colon, with OVCAR-5 ovarian, in the assay with A498 renal, in the assay on DMS 273 small cell lung and in the assay with M19-MEL melanoma was above 100 µM throughout.
As to `O=C1OC2(OC2c2ccccc2)c2ccccc21` (configuration not stated), the TGI in the assay on U251 CNS, in the assay on HCC-2998 colon, with SW-620 colon, with DLD-1 colon, in the assay on CCRF-CEM leukemia and in the assay on UO-31 renal was above 100 µM in each case. Also, the TGI in the assay with KM20L2 colon, with OVCAR-5 ovarian, in the assay on DMS 273 small cell lung and with M19-MEL melanoma was above 100 µM each time.
Take `CCCCCCCCCCCCCCCCCC(=O)O[C@H](COC(=O)CCCCCCCCCCC)COC(=O)CCCCCCCCCCCCCCC`: the TGI in the assay with U251 CNS, in the assay with HCC-2998 colon, with OVCAR-4 ovarian, in the assay on SW-620 colon, in the assay with DLD-1 colon and with CCRF-CEM leukemia was above 100 µM in each case. For the same compound, the TGI in the assay with UO-31 renal, with KM20L2 colon, with OVCAR-5 ovarian, in the assay with A498 renal, with DMS 273 small cell lung and in the assay with M19-MEL melanoma was above 100 µM in each case.
Regarding `Cc1[nH]c(=O)[nH]c(=O)c1/C=C/C(=O)O`, the TGI in the assay on U251 CNS, in the assay on HCC-2998 colon, in the assay with OVCAR-4 ovarian, with SW-620 colon, in the assay with DLD-1 colon and in the assay with CCRF-CEM leukemia was above 1000 µM in each case. For the same compound, the TGI in the assay with UO-31 renal, with KM20L2 colon, in the assay with OVCAR-5 ovarian, in the assay with A498 renal, in the assay with DMS 273 small cell lung and in the assay with M19-MEL melanoma was above 1000 µM throughout.
Regarding `CCCC(C)NC1=C(NC(C)=O)C(=O)c2ccccc2C1=O` (configuration not stated), the TGI with U251 CNS, with HCC-2998 colon, with OVCAR-4 ovarian, in the assay on SW-620 colon, with DLD-1 colon and in the assay with CCRF-CEM leukemia was above 100 µM throughout. For the same compound, the TGI with UO-31 renal, in the assay with KM20L2 colon, in the assay on DMS 273 small cell lung and in the assay on M19-MEL melanoma was above 100 µM in each case.
`O=C(Cc1ccccc1)NN1C(=O)C(Cl)C1c1ccc(O)cc1` (configuration not stated): the TGI with U251 CNS, in the assay on HCC-2998 colon, with SW-620 colon, with DLD-1 colon, in the assay with CCRF-CEM leukemia and with UO-31 renal was above 100 µM throughout. Also, the TGI in the assay with KM20L2 colon, with OVCAR-5 ovarian, in the assay with DMS 273 small cell lung and in the assay on M19-MEL melanoma was above 100 µM each time.
Turning to `COc1cc(CNc2ccc(SC)cc2)cc(OC)c1OC`, the GI50 in the assay with U251 CNS is 10.8 µM and 4.13 µM; in the assay with HCC-2998 colon, 11 µM and 4.92 µM; in the assay on DLD-1 colon, 12 µM and 5.85 µM. Moreover, the TGI was 61.6 µM and 32.9 µM in the assay on U251 CNS; > 60 µM and 26.6 µM in the assay with HCC-2998 colon; above 100 µM in the assay with OVCAR-4 ovarian; above 100 µM in the assay with SW-620 colon; above 100 µM with DLD-1 colon; above 90.6 µM with CCRF-CEM leukemia. Further, the TGI in the assay with UO-31 renal was 83.1 µM and 51.1 µM; with KM20L2 colon, 19.5 µM and 23.3 µM; in the assay with OVCAR-5 ovarian it was > 92.1 µM and 87.3 µM; with A498 renal, 79.4 µM and 67.7 µM; with DMS 273 small cell lung, 28.1 µM and > 36.7 µM.
Turning to `O=C1c2ccccc2CCCCCCCCCCC12OCCCO2`, the TGI with U251 CNS is above 100 µM; with HCC-2998 colon, 68.2 µM; in the assay with OVCAR-4 ovarian it was above 100 µM; in the assay on DLD-1 colon it was above 100 µM; with CCRF-CEM leukemia, 83.3 µM; with UO-31 renal it was above 100 µM. Also, the TGI with KM20L2 colon is 71.7 µM; in the assay with OVCAR-5 ovarian it was 66.8 µM; in the assay on A498 renal it was 97.5 µM; in the assay with DMS 273 small cell lung, above 100 µM; in the assay on M19-MEL melanoma it was above 100 µM.
On to `Nc1ccc2[nH]c3c(-c4ccccc4)nccc3c2c1`, for which the TGI was above 100 µM in the assay with U251 CNS; 96.8 µM in the assay with HCC-2998 colon; above 75.5 µM in the assay with OVCAR-4 ovarian; above 100 µM in the assay on SW-620 colon; above 100 µM with DLD-1 colon; above 100 µM in the assay with CCRF-CEM leukemia. In addition, the TGI in the assay with UO-31 renal, in the assay with KM20L2 colon, in the assay on OVCAR-5 ovarian, with A498 renal, with DMS 273 small cell lung and in the assay on M19-MEL melanoma was above 100 µM in each case.
Regarding `O=C1c2ccccc2C(=O)N1Cc1ccccc1-c1c2nc(c(-c3ccccc3CN3C(=O)c4ccccc4C3=O)c3ccc([nH]3)c(-c3ccccc3CN3C(=O)c4ccccc4C3=O)c3nc(c(-c4ccccc4CN4C(=O)c5ccccc5C4=O)c4ccc1[nH]4)C=C3)C=C2`, the TGI in the assay on U251 CNS, in the assay with OVCAR-4 ovarian, in the assay on SW-620 colon, in the assay on DLD-1 colon, in the assay on CCRF-CEM leukemia and with UO-31 renal was above 100 µM in each case. Besides, the TGI with KM20L2 colon, in the assay with OVCAR-5 ovarian, in the assay with A498 renal, with DMS 273 small cell lung and with M19-MEL melanoma was above 100 µM in each case.
As to `NC1=NS(=O)(=O)Nc2nc(-c3ccc([N+](=O)[O-])cc3)[nH]c21`, the TGI in the assay on U251 CNS, in the assay with HCC-2998 colon, in the assay with OVCAR-4 ovarian, with SW-620 colon, in the assay on DLD-1 colon and in the assay on CCRF-CEM leukemia was above 100 µM each time. Further, the TGI in the assay on UO-31 renal, in the assay on OVCAR-5 ovarian, with DMS 273 small cell lung and in the assay with M19-MEL melanoma was above 100 µM in each case.
